Several values for one entry are separate records, joined by “and”; a condition that tells them apart may be missing. Equal values may be shown once.
Tests used:
ME-180 tumors = assay: Chemoradiotherapy of intradermal ME-180 tumors in mice; type: in vivo, athymic Ncr-nu/nu mice; settings: with single 8 Gy radiation; conjugate IT 10 mg/kg, cisplatin IP 7 mg/kg
Procedure: Chemoradiotherapy of ME-180 Tumors with intratumoral calcium phosphate particle/cisplatin conjugate was performed. Primary tumors were initiated on the right flank in seventy athymic Ncr-nu/nu mice, 5-7 weeks old, by intradermal injections of 2.25×10^6 ME-180 cells, a human cervical cancer line. Six treatment groups were established for the study and included an untreated control, 7 mg/kg intraperitoneal (IP) cisplatin, and intratumoral (IT) calcium phosphate particle/cisplatin conjugate at a dose of 10 mg/kg. These three treatment groups were repeated in combination with a single dose of radiation at 8 Gy (Varian 2100 C), for a total of six treatment groups. Mice were entered into treatment groups once the intradermal ME-180 tumors were 100 mm^3±10% in size. A minimum of 5 mice was placed into each group. The conjugate was injected via an 18-gauge needle directly into the intradermal tumor. Tumor length and width were measured daily and the volume determined (Tumor volume=(width)^2×length×0.4). Mouse weight was also recorded daily as weight loss is an indicator of cisplatin side effects. Statistical analysis, a one-way ANOVA and Newman-Kuels Comparison Test, was applied to the tumor volumes on day 15 after treatment.

[1] = Lymph node accumulation after footpad injection (Pt by graphite furnace AAS); type: in vivo, BALB/c mice; settings: 20 μl footpad injection; nodes at 30 min, 1, 4, 7 days
Procedure: Lymph node accumulation studies were conducted using nine BALB/c mice, 5-7 weeks old injected with 20 μl of calcium phosphate particle/cisplatin conjugate (40 mg/ml) in both rear footpads. Six control mice received 20 μl footpad injections of cisplatin solution only. Draining lymph nodes, as determined by lymphazurin injections (popliteal, inguinal, and lumbar) were collected at 30 min, 1 day, 4 day and 7 days and analyzed for Pt content by graphite furnace atomic absorption spectroscopy. Use of calcium phosphate particle/cisplatin conjugate leads to sustained elevated levels of cisplatin in the draining nodes.

[2] = test system: A2780cis human ovarian carcinoma cell line; assay: In vitro cytotoxicity, CellTiter96 AQueous One proliferation assay (Example 2); type: cell-based; settings: two days exposure, conjugate loading 112 μg/mg, listed as free active agent
Procedure: For in vitro cytotoxicity activity studies, the cisplatin-resistant cell line was used: A2780cis human ovarian carcinoma cell line (Sigma, 93112517) and cultured according to supplier's descriptions. Briefly, cells were cultured in RPMI1640 medium, supplemented with 2 mM Glutamine and 10% Fetal Bovine Serum (FBS) in a humid atmosphere at 37° C. and 5% CO2. Cells were supplemented with 1 μm cisplatin to the culture media every 2-3 passages, post-attachment. […] Three days were necessary to achieve a cisplatin concentration high enough to obtain an IC50 value. […] To confirm that the particle conjugates were diluted evenly across the wells, measurements of the total Pt concentration in all the wells of the active agent master plate were made by AAS after dissolving the conjugate solutions in dilute HCl. […] Absorbance values were converted to IC50 values using the four parameter logistic equation: Y=(Amax-Amin)/1+(x/IC50)^n+Amin Eq. 2 where Y=observed absorbance • Amax=absorbance of control cells • Amin=absorbance of cells in presence of highest agent concentration • x=active agent concentration (μg/ml) • n=slope of curve Samples were analyzed for statistically significant differences using the Student's T-test (P<0.05).

[3] = test system: A2780cis human ovarian carcinoma cell line; assay: In vitro cytotoxicity, CellTiter96 AQueous One proliferation assay (Example 1); type: cell-based; settings: A2780cis cells; sample added to cells; Example 1 particles
Procedure: In one set of in vitro cytotoxicity activity studies, the cisplatin-resistant A2780cis human ovarian carcinoma cell line was used. A2780cis human ovarian carcinoma cell line (Sigma, 93112517) was cultured according to supplier's descriptions. IC50 values (50% inhibitory concentration) were determined with the CellTiter96® AQueous One (Promega) colorimetric proliferation assay. The CellTiter96® AQueous One (Promega) colorimetric proliferation assay was used to determine the IC50 value (50% inhibitory concentration) evaluated from 12 two-fold dilutions of: (a) cisplatin (200 μg cisplatin /mL) in 0.9% saline (free active agent), (b) 1.5 mg of conjugates in 1.75 ml PBS, (c) 1.5 mg of hydroxyapatite in 1.75 ml of cisplatin solution. Control wells containing the hydroxyapatite only were used since the hydroxyapatite interferes with the CellTiter96 assay. Absorbance values from the hydroxyapatite only were subtracted from the conjugate data in order to determine the IC50 values. The cytotoxicity assay was conducted as follows: twenty-four hours after seeding 2000 A2780cis cells in […] of media on 96 well plates, […] PBS, or PBS with drug or conjugates was added to the wells.

Compound: N.N.[Cl][Pt][Cl] [cisplatin]
- tumors completely regressed (ME-180 tumors): ⅙
- duration of cisplatin levels in the draining popliteal node [1]: barely detected after one day
- IC50, direct addition study [2]: 6.297 ± 0.43 µg/mL and 6.3 µg/mL
- IC50 (50% inhibitory concentration) [3]: 6.07 ± 0.226 µg/mL

Source: patent US20110318422A1, “TARGETED ACTIVE AGENT DELIVERY SYSTEM BASED ON CALCIUM PHOSPHATE NANOPARTICLES” (priority 2007, published 2011)
